# Measurements from patent EP0525814A1, “Use of di-tertbutylhydroxyphenyl derivatives for the therapy of inflammatory conditions of the gastrointestinal tract” (BOEHRINGER MANNHEIM GMBH, priority 1991, dated 1993).
# System: Akute Kolitis
# Experiment: Acetic acid-induced acute colitis in rats, morphological evaluation of the mucosa by image analysis
# Assay type: in vivo, Ratten
# Conditions: rat, 3 x 200 mg/kg p.o.; for Anteil von Mukosabereichen Schädigungsstufe 0 (ohne Befund) an der Gesamtfläche des untersuchten Darmbereichs / Anteil von Mukosabereichen Schädigungsstufe 1 (Schwellung des Gewebes mit leichter Rötung) an der Gesamtfläche des untersuchten Darmbereichs / Anteil von Mukosabereichen Schädigungsstufe 2 (starke Rötung des Gewebes mit Einblutungen oder ulcerierenden Nekrosen) an der Gesamtfläche des untersuchten Darmbereichs: rectum and parts of distal colon, 3 days after induction with 5% acetic acid, mean ± spread
# [1] = change versus control in words, p<0,01
# Protocol: Beispiel 1 und Probucol wurden in einer Dosierung von 200 mg/kg/d 3 mal oral verabreicht. Die Behandlung wurde einen Tag vor Entzündungsinduktion mit 5% Essigsäure begonnen. […] Das Ausmaß einer entzündlichen Reaktion im Darm wird durch Begutachtung des Mukosa-Zustandes und Klassifizierung nach festgelegten Parametern bestimmt.
# Akute Kolitis wurde bei 24 h nüchternen Ratten durch rektale Instillation von 5% Essigsäure (1,5ml/Tier) über eine 8 cm lange Sonde induziert. Die morphologische Auswertung des Mukosazustandes aus dem Rektum und Teilen des distalen Kolons (ca. 8 cm) erfolgte am 3. Tag nach Entzündungsinduktion, nachdem die Tiere getötet worden waren. Beispiel 1 und Probucol wurden in einer Dosierung von 200 mg/kg/d 3 mal p.o. (2,5 ml/kg) verabreicht. Die erste Gabe erfolgte 24 h vor Essigsäure-Applikation. Kontrolltieren wurde das Substanzlösungsmittel (20% DMSO in Öl) verabreicht.
# Die morphologische Auswertung erfolgte an einem computergeschützten Bildanalyse-System. Es wurde der Anteil von entzündetem Gewebe an der Gesamtdarmoberfläche bestimmt. Folgende Schädigungsstufen wurden unterschieden: • - Stufe 0 : ohne Befund • - Stufe 1 : Schwellung des Gewebes mit leichter Rötung • - Stufe 2 : starke Rötung des Gewebes mit Einblutungen oder ulcerierenden Nekrosen
Compound,Anteil von Mukosabereichen Schädigungsstufe 0 (ohne Befund) an der Gesamtfläche des untersuchten Darmbereichs,Anteil von Mukosabereichen Schädigungsstufe 1 (Schwellung des Gewebes mit leichter Rötung) an der Gesamtfläche des untersuchten Darmbereichs,Anteil von Mukosabereichen Schädigungsstufe 2 (starke Rötung des Gewebes mit Einblutungen oder ulcerierenden Nekrosen) an der Gesamtfläche des untersuchten Darmbereichs,nur noch geschwollene Gewebebereiche (Schädigungsstufe 1) [1],stark geschädigte Darmanteile (Schädigungsstufe 2) [1],"größere, morphologisch normale Gewebebereiche (Schädigungsstufe 0) (result in words, p<0,01 versus control)",Einfluß auf die durch Essigsäure-Applikation hervorgerufenen Mukosaschädigungen (result in words)
CC(C)(C)c1cc(CCNC(=O)CCc2cc(C(C)(C)C)c(O)c(C(C)(C)C)c2)cc(C(C)(C)C)c1O [Beispiel 1],"17,20 ± 8,93 %","66,96 ± 8,31 %","15,75 ± 6,24 %",Zunahme,deutlicher Abnahme,nachweisbar,
"CC(C)(Sc1cc(C(C)(C)C)c(O)c(C(C)(C)C)c1)Sc1cc(C(C)(C)C)c(O)c(C(C)(C)C)c1 [Probucol, reference compound]","0,12 ± 0,09%","52,78 ± 9,36%","47,19 ± 9,36%",,,,keinen Einfluß
